From PubChem BioAssay (NCI)
“And” between values parts separate entries of the source, which are not always exact repeats. Equal entries are not always repeated.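 Five concentrations, 48 hours, 96-well plates. GI50 marks 50% less growth. Definition used: TGI = concentration required for complete inhibition of growth.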

What was measured:
Test in all cases: NCI anticancer screen, dose series, 48 h
A549 NSCLC = tested on: A549 NSCLC
EKVX NSCLC = tested on: EKVX NSCLC
IGROV1 ovarian = tested on: IGROV1 ovarian
K-562 leukemia = tested on: K-562 leukemia
NCI-H23 lung = tested on: NCI-H23 lung
SK-MEL-28 melanoma = tested on: SK-MEL-28 melanoma
SW-620 colon = tested on: SW-620 colon
U251 CNS = tested on: U251 CNS
UACC-257 melanoma = tested on: UACC-257 melanoma
UACC-62 melanoma = tested on: UACC-62 melanoma

Row | Compound | GI50 (A549 NSCLC) [µM] | TGI (A549 NSCLC) | GI50 (EKVX NSCLC) [µM] | TGI (EKVX NSCLC) | GI50 (IGROV1 ovarian) [µM] | TGI (IGROV1 ovarian) | GI50 (K-562 leukemia) [µM] | TGI (K-562 leukemia) | GI50 (NCI-H23 lung) [µM] | TGI (NCI-H23 lung) | GI50 (SK-MEL-28 melanoma) [µM] | TGI (SK-MEL-28 melanoma) | GI50 (SW-620 colon) [µM] | TGI (SW-620 colon) | GI50 (U251 CNS) [µM] | TGI (U251 CNS) | GI50 (UACC-257 melanoma) [µM] | TGI (UACC-257 melanoma) | GI50 (UACC-62 melanoma) [µM] | TGI (UACC-62 melanoma)
1 | C/C(=C\c1ccn(-c2ccc(N)c(C(F)(F)F)c2)n1)[C@@H]1C[C@@H]2O[C@]2(C)CCC[C@H](C)[C@H](O)[C@@H](C)C(=O)C(C)(C)[C@@H](O)CC(=O)O1 | < 0.0116 | > 32.5 µM | 0.344 | > 32.5 µM | 0.0773 | > 32.5 µM | 0.0109 | > 32.5 µM | 0.0221 | > 32.5 µM | 3.87 | > 32.5 µM | 0.00743 | > 32.5 µM | < 0.012 | 8.55 µM | 4.27 | > 32.5 µM | 0.0599 | > 16.2 µM
2 | CCCCCCCC[N+](C)(C)Cc1ccc(C[N+](C)(C)CCCCCCCC)cc1 | – | > 100 µM | – | > 100 µM | – | 65.1 µM | – | > 100 µM | – | 47 µM | – | > 100 µM | – | > 100 µM | – | > 100 µM | – | > 100 µM | – | > 100 µM
3 | CN1CCC23c4c5ccc(O)c4OC2C(=NN=C2CCC4(O)C6Cc7ccc(O)c8c7C4(CCN6C)C2O8)CCC3(O)C1C5 (stereo not drawn) | – | > 100 µM | – | > 100 µM | – | > 100 µM | – | > 100 µM | – | > 100 µM | – | > 100 µM | – | > 100 µM | – | > 100 µM | – | > 100 µM | – | > 100 µM
4 | C=C(C)C(=O)NC(N)=NC#N | – | 307 µM | 165 | > 90 µM and 392 µM | 168 | > 75.1 µM and 309 µM | – | 51.5 µM and 58.5 µM | 147 | 301 µM | 75 | > 56.9 µM and 205 µM | 41 | 39.4 µM and 170 µM | 131 | 260 µM | 69.4 | > 66.6 µM and 200 µM | 87 | > 81.7 µM and 230 µM
5 | CN(C)CC/C=C1\c2ccccc2Sc2ccc(Cl)cc21 | 2.87 | 11.4 µM and 28.9 µM | 6.47 | 22.3 µM and 22.8 µM | 3.24 | 11.3 µM and 26.3 µM | 2.43 | 4.71 µM and 18.7 µM | 3.52 | 15.7 µM and 31.3 µM | 1.74 | 3.11 µM and 20.2 µM | 2.18 | 5.4 µM and 35.4 µM | 1.92 | 4.66 µM and 26.9 µM | 1.49 | 3.11 µM and 20.6 µM | 1.51 | 3.09 µM and 26.7 µM
6 | CON(C)C(=O)C(Cc1ccccc1)NC(=O)OC(C)(C)C (stereo not drawn) | – | > 100 µM | – | > 100 µM | – | > 100 µM | – | > 100 µM | – | > 100 µM | – | > 100 µM | – | > 100 µM | – | > 100 µM | – | > 100 µM | – | > 100 µM
7 | CN1C(=O)n2c(nc3ccccc32)C(N=[N+]=[N-])(N=[N+]=[N-])C1=O (stereo not drawn) | – | > 100 µM | – | > 100 µM | – | > 100 µM | – | > 100 µM | – | > 100 µM | – | > 100 µM | – | > 100 µM | – | > 100 µM | – | > 100 µM | – | > 100 µM
8 | COc1cc(C(=O)C/C(CCC(=O)Nc2ccccc2[N+](=O)[O-])=N\NC(=O)C(N)=O)ccc1O | – | > 100 µM | – | > 100 µM | – | > 100 µM | – | > 100 µM | – | > 100 µM | – | > 100 µM | – | > 100 µM | – | > 100 µM | – | > 100 µM | – | > 100 µM
